Measured values as given in paper PMC2754045 (Biochemistry, 2009).

What was measured:
mTR-GCCG [1] = details: for Activity lower than that of the wild type enzyme: Sec to Cys mutant versus WT, pH 7.0
mTR-GCCG [2] = type: biochemical, mouse; details: mTR-GCCG versus mTR-GCUG

Compound | Activity lower than that of the wild type enzyme (mTR-GCCG [1]) | IC50 increase on mutation of Sec to Cys (mTR-GCCG [2]) | further results
O=C(O)CCCC[C@@H]1CCSS1 [Lipoic Acid, lipoic acid] | – | – | Km increase in the Cys2 mutant (mTR-GCCG [1]; versus full-length WT enzyme): 2.3 fold
N[C@@H](C[Se][Se]C[C@H](N)C(=O)O)C(=O)O [selenocystine] | 3.7 fold | – | –
CC(=O)OC[C@H]1O[C@@H]([S-])[C@H](OC(C)=O)[C@@H](OC(C)=O)[C@@H]1OC(C)=O.CCP(CC)CC.[Au+] [auranofin] | – | 4 fold | –
OC[C@H]1O[C@H]([S-])[C@H](O)[C@@H](O)[C@@H]1O.[Au+] [aurothioglucose] | – | 1.7 fold | –
O=[Se]([O-])[O-].[Na+].[Na+] [selenite, sodium selenite] | ~ 2 fold | – | –
